From patent US20110263647A1 (AMGEN INC., priority 2009, published 2011) come the findings set out here.

Structures are written as SMILES. Structures can show the parent of a compound that is named as a salt. A value given as a limit tells only on which side of the number the result lay.

T1 sequence (P31749 118-472 limits assumed): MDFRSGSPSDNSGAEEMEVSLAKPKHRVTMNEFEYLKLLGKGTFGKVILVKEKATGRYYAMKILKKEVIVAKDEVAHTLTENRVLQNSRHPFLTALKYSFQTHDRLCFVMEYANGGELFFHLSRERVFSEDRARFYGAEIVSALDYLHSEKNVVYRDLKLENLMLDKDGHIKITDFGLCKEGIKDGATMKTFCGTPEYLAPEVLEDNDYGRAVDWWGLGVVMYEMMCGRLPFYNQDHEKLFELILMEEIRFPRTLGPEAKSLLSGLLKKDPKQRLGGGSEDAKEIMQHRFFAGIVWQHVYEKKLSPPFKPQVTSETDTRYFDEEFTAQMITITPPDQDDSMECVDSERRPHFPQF

One data set addresses T1, PKBα (Homo sapiens, UniProt P31749).
T1 construct: fused on or other part: His6 tag is likely on the Upstate products
As to the kind of experiment: PKB kinase assay (P33-labeled ATP, peptide substrate, filter plate). It is filed as biochemical. The following applies: with respect to PKBα. The source says: The kinase assay for evaluating PKB activity comprises active PKB enzymes, a PKB specific substrate, and P^33-labeled ATP. Two form of PKBα enzymes were used, the full length PKBα and a kinase domain of PKBα with pleckstrin domain (amino acids 1-117) deleted. Both PKB enzymes were obtained from Upstate cell signaling solutions (Cat.# 14-276 and 14-341). The PKB substrate used is a synthetic peptide (ARKRERTYSFGHHA (SEQ ID NO: 1)) as described in Obata et al., J. Biol. Chem. 275 (46), 36108-36115 (2000). The phosphorylated substrate was captured by a phosphocellulose membrane filter plate (MILLIPORE) and measured by a Wallac Microbeta liquid scintillation counter (Perkin Elmer). Table 1 provides the IC50 values obtained for each of the examples with respect to PKBα.
For orientation: IC50 means the concentration needed to halve the response being measured. The compound `NC(CCc1nc(CO)c(-c2ccc3cnc(F)cc3c2)s1)Cc1ccc(C(F)(F)F)cc1` (racemic) [Example 51, (±)-(2-(3-Amino-4-(4-(trifluoromethyl)phenyl)butyl)-5-(3-fluoroisoquinolin-6-yl)thiazol-4-yl)methanol] registered an IC50 of 50 to 1000 nM. In the case of `COCc1nc(NCC(N)[C@@H](C)c2ccc(C(F)(F)F)cc2)sc1-c1ccc2cnc(F)cc2c1` (stereo in doubt) [Example 27, N-((2R,3S)-2-Amino-3-(4-(trifluoromethyl)phenyl)butyl)-5-(3-fluoroisoquinolin-6-yl)-4-(methoxymethyl)thiazol-2-amine], the IC50 is less than 50 nM.

Take `NC(CNc1ncc(-c2ccc3cnc(F)cc3c2)s1)Cn1ccc(C(F)(F)F)n1` (stereo in doubt) [Example 29, N—((S)-2-Amino-3-(3-(trifluoromethyl)-1H-pyrazol-1-yl)propyl)-5-(3-fluoroisoquinolin-6-yl)thiazol-2-amine]: the IC50 fell in the range of 50 to 1000 nM. Consider `CC(C)(C)OC(=O)N[C@@H](Cc1ccc(C(F)(F)F)nc1)CN(C(=O)OC(C)(C)C)c1ncc(-c2ccc3cnc(F)cc3c2)s1` [Example 1, tert-Butyl ((2S)-2-((tert-butoxycarbonyl)amino)-3-(6-(trifluoromethyl)-3-pyridinyl)propyl)(5-(3-fluoro-6-isoquinolinyl)-1,3-thiazol-2-yl)carbamate], for which the IC50 lay within 1000 to 10000 nM. In the case of `CC(F)(F)c1ccc(C[C@H](N)CNc2ncc(-c3ccc4cnc(F)cc4c3)s2)cc1` [Example 3, N—((S)-2-Amino-3-(4-(1,1-difluoroethyl)phenyl)propyl)-5-(3-fluoroisoquinolin-6-yl)thiazol-2-amine], the IC50 is less than 50 nM.

Consider `N[C@H](CNc1ncc(-c2ccc3cnc(F)cc3c2)s1)Cc1ccc(Cl)cc1` [Example 5, N—((S)-2-Amino-3-(4-chlorophenyl)propyl)-5-(3-fluoroisoquinolin-6-yl)thiazol-2-amine], for which the IC50 was less than 50 nM. On to `COCc1nc(NC[C@@H](N)Cc2ccc(C(C)(F)F)nc2)sc1-c1ccc2cnc(F)cc2c1` [Example 6, N—((S)-2-Amino-3-(6-(1,1-difluoroethyl)pyridin-3-yl)propyl)-5-(3-fluoroisoquinolin-6-yl-4-(methoxymethyl)thiazol-2-amine trifluoroacetate], for which the IC50 was less than 50 nM. `COC(=O)c1nc(NC[C@@H](N)Cc2ccc(C(C)(F)F)nc2)sc1-c1ccc2cnc(F)cc2c1` [Example 8, Methyl 2-((S)-2-amino-3-(6-(1,1-difluoroethyl)pyridin-3-yl)propylamino)-5-(3-fluoroisoquinolin-6-yl)thiazole-4-carboxylate] showed an IC50 of less than 50 nM.

`CC(F)(F)c1ccc(C[C@H](N)CNc2nc(CO)c(-c3ccc4cnc(F)cc4c3)s2)cn1` [Example 9, (2-((S)-2-Amino-3-(6-(1,1-difluoroethyl)pyridin-3-yl)propylamino)-5-(3-fluoroisoquinolin-6-yl)thiazol-4-yl)methanol]: the IC50 is less than 50 nM. As for `COC(=O)c1nc(NC[C@@H](N)[C@@H](C)c2ccc(C(F)(F)F)nc2)sc1-c1ccc2cnc(F)cc2c1` [Example 11, Methyl 2-((2S,3S)-2-amino-3-(6-(trifluoromethyl)pyridin-3-yl)butylamino)-5-(3-fluoroisoquinolin-6-yl)thiazole-4-carboxylate], the IC50 lay in the range of 50 to 1000 nM. `C[C@@H](c1ccc(C(F)(F)F)nc1)[C@H](N)CNc1nc(CO)c(-c2ccc3cnc(F)cc3c2)s1` [Example 12, (2-((2S,3S)-2-Amino-3-(6-(trifluoromethyl)pyridin-3-yl)butylamino)-5-(3-fluoroisoquinolin-6-yl)thiazol-4-yl)methanol] returned an IC50 of less than 50 nM.

The compound `COCc1nc(NC[C@@H](N)[C@@H](C)c2ccc(C(F)(F)F)nc2)sc1-c1ccc2cnc(F)cc2c1` [Example 13, N-((2S,3S)-2-Amino-3-(6-(trifluoromethyl)pyridin-3-yl)butyl)-5-(3-fluoroisoquinolin-6-yl)-4-(methoxymethyl)thiazol-2-amine] yielded an IC50 of less than 50 nM.

The compound `N[C@H](CNc1ncc(-c2ccc3cnc(F)cc3c2)s1)Cc1ccc(Cl)c(Cl)c1` [Example 14, N—((S)-2-amino-3-(3,4-dichlorophenyl)propyl)-5-(3-fluoroisoquinolin-6-yl)thiazol-2-amine] yielded an IC50 of less than 50 nM. Compound `COC(=O)c1nc(NC[C@@H](N)Cc2ccc(C(F)(F)F)nc2)sc1-c1ccc2cnc(F)cc2c1` [Example 15, Methyl 2-((S)-2-amino-3-(6-(trifluoromethyl)pyridin-3-yl)propylamino)-5-(3-fluoroisoquinolin-6-yl)thiazole-4-carboxylate] registered an IC50 of less than 50 nM. With `N[C@H](CNc1nc(CO)c(-c2ccc3cnc(F)cc3c2)s1)Cc1ccc(C(F)(F)F)nc1` [Example 16, (2-((S)-2-Amino-3-(6-(trifluoromethyl)pyridin-3-yl)propylamino)-5-(3-fluoroisoquinolin-6-yl)thiazol-4-yl)methanol], the IC50 is less than 50 nM. The compound `CNC(=O)c1nc(NC[C@@H](N)Cc2ccc(C(F)(F)F)nc2)sc1-c1ccc2cnc(F)cc2c1` [Example 17] had a concentration for half-maximal inhibition (IC50) of 50 to 1000 nM. The compound `COCc1nc(NC[C@H](N)Cc2ccc(C(F)(F)F)nc2)sc1-c1ccc2cnc(F)cc2c1` [Example 19, N—((R)-2-Amino-3-(6-(trifluoromethyl)pyridin-3-yl)propyl)-5-(3-fluoroisoquinolin-6-yl)-4-(methoxymethyl)thiazol-2-amine] yielded an IC50 of 1000 to 10000 nM. As to `COC(=O)c1nc(NC[C@@H](N)Cc2ccc(C(F)(F)F)cc2)sc1-c1ccc2cnc(F)cc2c1` [Example 20, Methyl 2-((S)-2-amino-3-(4-(trifluoromethyl)phenyl)propylamino)-5-(3-fluoroisoquinolin-6-yl)thiazole-4-carboxylate], the IC50 is less than 50 nM.

The compound `N[C@H](CNc1nc(CO)c(-c2ccc3cnc(F)cc3c2)s1)Cc1ccc(C(F)(F)F)cc1` [Example 21, (2-((S)-2-Amino-3-(4-(trifluoromethyl)phenyl)propylamino)-5-(3-fluoroisoquinolin-6-yl)thiazol-4-yl)methanol] showed an IC50 of less than 50 nM. `CNC(=O)c1nc(NC[C@@H](N)Cc2ccc(C(F)(F)F)cc2)sc1-c1ccc2cnc(F)cc2c1` [Example 22, 2-((S)-2-Amino-3-(4-(trifluoromethyl)phenyl)propylamino)-5-(3-fluoroisoquinolin-6-yl)-N-methylthiazole-4-carboxamide trifluoroacetate] registered an IC50 of 50 to 1000 nM.

Tested on in a further data set: not listed separately
As to the kind of experiment: In vivo pharmacokinetics, IV and oral gavage. The following applies: male, Sprague-Dawley, plasma; rat, IV 0.5 mg/kg. On the set-up: species or system male Sprague-Dawley rats. The procedure: In vivo pharmacokinetic parameters were determined by measuring systemic plasma exposure in male Sprague-Dawley rats (Charles River Laboratories or Taconic, Oxnard, Calif.) by intravenous administration (N=3 fed rats: 2 mg/kg tail vein injection in DMSO) and oral gavage (N=3 fasted rats: 5 mg/kg in 1% Tween 80-2% HPMC-97% deionized water-pH 2.0 vehicle) (Comparative Example 18′ was only dosed IV and at 0.5 mg/kg). DMSO was obtained from Mallinckrodt Inc.; Tween 80 was obtained from Croda; HPMC is Methocel E50 Premium LV, obtained from Dow Excipients. Following oral administration, blood was drawn (250 μL) at 0.25, 0.5, 1, 2, 4, 6, 8, 12, and 16 hours. Following iv administration, blood was drawn (250 μL) at 0.083, 0.25, 0.5, 1, 2, 4, 6, 8, and 16 hours. Blood samples were drawn using a Culex® In Vivo Sampling System (BASi) and collected in BD Microtainer® tubes containing Lithium Heparin (BD). Plasma was obtained by centrifugation of blood at 14000 g and 2-8° C. for five minutes using an Eppendorf 5417R Centrifuge System. Plasma samples were mixed with 2× volume of acetonitrile (Sigma-Aldrich, St. Louis, Mo.). The mixture was stirred briefly using a vortex mixer and then centrifuged at 2867 g for 5 minutes in a Beckman Coulter Allegra 25R equipped with a Type S5700 rotor. The supernatant was removed and diluted 2× with mobile phase A (5/94.9/0.1 v/v/v MeOH/water/AcOH). Plasma concentrations were determined using liquid chromatography/tandem mass spectrometry, with electrospray ionization (ESI) and multiple reaction monitoring in the positive ion mode (Sciex API 3000 mass spectrometer connected to a Shimadzu LC-20AD pump and a LEAP PAL autosampler. Typical conditions used for HPLC were: mobile phase A=5/94.9/0.1 v/v/v MeOH/water/AcOH and mobile phase B=95/4.9/0.1 v/v/v MeOH/water/AcOH; HPLC column was a Varian MonoChrom C18.3μ for 2×30 mm and 51.1 for 2×50 mm) Instrument response was calibrated by a standard curve over 0.1-2000 ng/mL concentration range, and the lower limit of quantitation was 0.1-2.5 ng/mL. Peak areas were integrated on a Windows 2000 computer using the Sciex program Analyst® (Version 1.4.1). Following peak area integration, the data were exported to the software package (Watson® Non-GLP PROD (Version 7.0.0.01, Thermo Electron Corp., Waltham, Mass.)), where concentrations were determined by a weighted linear regression of peak area versus the nominal concentrations of the calibration standards. Calculations were performed on unrounded numbers. The Watson® Non-GLP PROD software was used to determine precision and accuracy for the calibration standards. Noncompartmental analysis of plasma concentration data was used to generate PK parameters such as clearance (CL, L/h/kg), volume of distribution (Vss, L/kg), area under the curve (AUC, ng·h/mL) and secondary parameters such as half-life (t1/2, h) and oral bioavailability (% F, %). This was done using WinNonlin Enterprise software (Version 5.1.1, from Pharsight Corp., Mountain View, Calif.). References for pharmacokinetic analysis include: Gabrielsson and Weiner (1997) Pharmacokinetic and Pharmacodynamic Data Analysis Concepts and Applications, 2nd ed., Swedish Pharmaceutical Press, Stockholm; Gibaldi and Perrier (1982) Pharmacokinetics, 2nd ed., Marcel Dekker, New York. Rowland and Tozer (1995) Clinical Pharmacokinetics: Concepts and Applications, 3rd ed., Lippincott Williams & Wilkins, Philadelphia.
`COCc1nc(NC[C@@H](N)Cc2ccc(C(F)(F)F)nc2)sc1-c1ccc2cnccc2c1` [Comparative Example 18′, (S)—N-1-(5-(Isoquinolin-6-yl)-4-(methoxymethyl)thiazol-2-yl)-3-(6-(trifluoromethyl)pyridin-3-yl)propane-1,2-diamine, reference compound] gave a clearance of 237 mL/min/kg.

The data set is the same for the next values; noted with them: male, Sprague-Dawley, plasma; rat, IV 0.5 mg/kg; read-out: IV AUClast.
Consider `COCc1nc(NC[C@@H](N)Cc2ccc(C(F)(F)F)nc2)sc1-c1ccc2cnccc2c1` [Comparative Example 18′, (S)—N-1-(5-(Isoquinolin-6-yl)-4-(methoxymethyl)thiazol-2-yl)-3-(6-(trifluoromethyl)pyridin-3-yl)propane-1,2-diamine, reference compound], for which the AUC(0-t) was 33 ng·h/mL.

Staying with this data set, now noted: male, Sprague-Dawley, plasma; rat, IV 0.5 mg/kg; read-out: IV Cmax.
In general, Cmax refers to the maximum level reached in the sampled fluid or tissue. Take `COCc1nc(NC[C@@H](N)Cc2ccc(C(F)(F)F)nc2)sc1-c1ccc2cnccc2c1` [Comparative Example 18′, (S)—N-1-(5-(Isoquinolin-6-yl)-4-(methoxymethyl)thiazol-2-yl)-3-(6-(trifluoromethyl)pyridin-3-yl)propane-1,2-diamine, reference compound]: the Cmax is 73 ng/mL.

Still in this data set, the particulars now being: male, Sprague-Dawley, plasma; rat, IV 0.5 mg/kg; read-out: Vss.
As for `COCc1nc(NC[C@@H](N)Cc2ccc(C(F)(F)F)nc2)sc1-c1ccc2cnccc2c1` [Comparative Example 18′, (S)—N-1-(5-(Isoquinolin-6-yl)-4-(methoxymethyl)thiazol-2-yl)-3-(6-(trifluoromethyl)pyridin-3-yl)propane-1,2-diamine, reference compound], the Vd came out at 6.44 L/kg.
